Data: a melting point compilation (Tetko et al.; mined from patent text by program, amines drawn as free bases though some values may be those of a salt)

| SMILES | melting point |
| --- | --- |
| C#CCOc1cc(C(=O)O)cc(N)c1-c1ccccc1 | 172 to 173 °C |
| COCCOc1cc(NC(=O)OC(C)(C)C)c([N+](=O)[O-])cc1I | 109 to 111 °C |
| CN(C)c1ccc(C(=O)Nc2cc(C(=O)NCc3ccccc3)ccn2)cc1 | 160 to 165 °C |
| CCCn1cc(Cc2ccc(C(=O)NS(=O)(=O)c3ccccc3C)cc2OC)c2cc(CC3CCN(C)C3=O)ccc21 (stereo not drawn) | 103 to 115 °C |
| COc1cc(OC)c(C(=O)CCCCCl)cc1N | 87 to 88 °C |
| COC(=O)c1cnc(C(=O)OC)c2ccccc12 | 69 to 70 °C |
| O=c1[nH]c(=O)n2c3c(cccc13)CCC2CO (stereo not drawn) | 205 to 207 °C |
| CN(C)CCN/C(=C1/Sc2ccccc2C1=O)c1ccccc1 | 123 to 125 °C |
| FC(F)(F)c1ccc2nc(CN3CCN(c4ccc(Cl)cc4)CC3)cn2c1 | 128 to 135 °C |
| CC1(C)C(=O)N(c2ccnc(NC(=O)NCc3ccccn3)c2)c2cccnc21 | 160 to 163 °C |
| CS(=O)(=O)Nc1ccncc1-c1ccc2cnc(Nc3ccc(N4CCOCC4)cc3)nn12 | 178 to 180 °C |
| Nc1cccc(S(=O)(=O)NCc2ccncc2)c1 | 139 °C |
| CCc1noc(NC(C)=O)c1Cl | 113 to 114 °C |
| CON=C(C1=Nc2ccc(Cl)cc2C(c2ccccc2F)=[N+]([O-])C1)[N+](=O)[O-] | 207 to 209 °C |
| CS(=O)(=O)c1ccc(-c2cc(Br)c3cnc(Nc4ccc(N5CCOCC5)cc4)nn23)cc1 | 242 to 244 °C |
| O=c1c(-c2ccccc2)c(CSc2ncnc3[nH]cnc23)oc2ccccc12 | 208 to 209 °C |
| O=S1(=O)CCc2nn(-c3ccc(Cl)cc3)c(Br)c2C1 | 138 to 145 °C |
| CN1C(=O)C(Cc2ccccc2)Oc2ccc(N)cc21 (stereo not drawn) | 82 to 85 °C |
| COc1cc2c(cc1OC)CC(=O)N(Cc1cccnc1)C=C2 | 144 to 146 °C |
| CC(C)Oc1cc(/C=C/C(=O)O)n(Cc2ccc(C(F)(F)F)cc2Cl)n1 | 170 to 171 °C |
| CCC/C=C/C(=O)NC(=O)OC(C)(C)C | 71 to 72 °C |
| Cc1cc(C(=O)O)nc(-c2ccc([N+](=O)[O-])cc2)c1 | 216 to 219 °C |
| CCOC(=O)C1CN(C)c2nc3cc(F)c(F)cc3cc2C1=O (stereo not drawn) | 188 °C |
| COc1ccc(COc2ccc(/C=C/c3cc(/C=C/c4ccc5cc[nH]c5c4)n[nH]3)c(OC)c2)cc1 | 211 to 214 °C |
| OC[C@@H]1C[C@@H](C2CCCCC2)CN1 | 98 to 99 °C |
| CCCCOc1ccc(-c2nc3n(c2-c2ccc(OCCCC)cc2)CCS3)cc1 | 149 to 151 °C |

| SMILES | melting point |
| --- | --- |
| CSc1cnc2sccc2c1O | 203 to 205 °C |
| O=C(O)COc1cc(F)c(-c2ccccc2)cc1C(=S)NCc1cccc([N+](=O)[O-])c1 | 177 to 179 °C |
| Sc1cccc(CN2CCCCC2)c1 | 121 to 123 °C |
| CN(Cc1ccccc1)C1=N/C(=C\c2c[nH]c3ncc(Cl)cc23)C(=O)N1 | 310 °C |
| CCOC(=O)c1cn(-c2cc(N)c(F)cc2F)c2c(C)c(F)c(F)c(N)c2c1=O | 134 to 135 °C |
| O=C(NNS(=O)(=O)c1ccccc1)c1cc2cccc(Cl)c2o1 | 179 to 180 °C |
| CC(C)c1ccc(O[C@@H](Cc2ccc(O)cc2)C(=O)N2C(=O)OC[C@@H]2Cc2ccccc2)cc1 | 142 to 143 °C |
| O=C1NC(=O)C(CC#Cc2ccc(Cl)cc2)(Sc2nc3ccccc3o2)S1 (stereo not drawn) | 137 to 139 °C |
| CCOC(=O)CNC(=O)N(CC(=O)OCC)Cc1ccccc1 | 64 to 65 °C |
| O=c1c2cnc(N3CCCCC3)nc2sn1CCc1ccccn1 | 109 to 110 °C |
| O=C1N(Cc2ncccc2C(F)(F)F)c2cccnc2C12COc1cc3c(cc12)OCCO3 (stereo not drawn) | > 250 °C |
| Cc1ccccc1CNC(=O)c1cc(C)c([N+](=O)[O-])c(C)c1 | 202 to 203 °C |
| O=C(O)CN(CCN(CC(=O)O)CC(=O)O)CCN(CC(=O)O)CC(=O)Nc1ccccc1 | 125 °C |
| Cc1ncc(CO)c(C2NC(C(=O)O)C(C)(C)S2)c1O (stereo not drawn) | 201 to 202 °C |
| Cc1cccc(OCC(=S)NCCN2CCCC2)c1C | 62 to 64 °C |
| COc1ccc(C=CC(=O)C=Cc2ccc(OC)c(OC)c2)cc1OC | 68 to 70 °C |
| COC(=O)c1cccc(NC(=O)c2ccc(OC)c([N+](=O)[O-])c2)c1 | 233 to 235 °C |
| COc1cc(OC)nc(NN)n1 | 94 °C |
| O=C1c2ccccc2COc2c(Br)cccc21 | 127 to 130 °C |
| C[C@@H]1N(c2ccc(C#N)c(C(F)(F)F)c2)C(=O)C[C@]1(C)O | 134 to 137 °C |
| Nc1ccc(S(=O)(=O)N2CCCC(c3ccc(Cl)c(Cl)c3)=N2)cc1 | 232 to 234 °C |
| CCCCOc1ccc(Oc2ccc(C#CC(C)N(O)C(N)=O)o2)cc1 (stereo not drawn) | 128 to 129 °C |
| O=C(O)CCCCCCCCCCSc1nc(-c2ccccc2)c(-c2ccccc2)[nH]1 | 193 to 195 °C |
| COCCCOc1cc(C[C@@H](C[C@H](N)[C@@H](O)C[C@H](C(=O)NCC(C)(C)C(N)=O)C(C)C)C(C)C)ccc1OC | 95 to 104 °C |
| CCN1C[C@@H](O)[C@H](Oc2ccc(C(C)=O)cc2OC)C1 (relative stereo) | 121 to 123 °C |
| FC(F)(F)Oc1ccc(Cn2cnc3c(-c4ccco4)ncnc32)cc1 | 146 to 147 °C |

| SMILES | melting point |
| --- | --- |
| CN(C(CCn1c(=O)cc(C(F)(F)F)[nH]c1=O)C(=O)NO)S(=O)(=O)c1ccc(Oc2cccc(Cl)c2)cc1 (stereo not drawn) | 168 to 169 °C |
| CCCCc1ncc(/C=C2\C(=O)NC(=O)N2c2ccccc2)n1Cc1ccc(C(=O)O)cc1 | 286 to 290 °C |
| COCCNC(=O)c1ccc(/C=C/C(=O)O)cc1 | 205 °C |
| Cc1cccc2nc(-c3ccccc3)sc12 | 53 to 54 °C |
| CCOC(=O)C1=C2c3[nH]c4ccc(Cl)cc4c3CCN2CCC1 | 82 to 83 °C |
| Cc1nc(N2CCCC(Cc3cccc(F)c3)C2=O)sc1C(=O)NCc1ccccc1 (stereo not drawn) | 170 to 171 °C |
| COc1ccc(Cc2nc3cnc4cc(-c5ccccc5)ccc4c3n2CCOc2ccccc2)cc1 | 205 to 206 °C |
| CCOC(CCNC(=O)CCC(=O)NCCC(OCC)OCC)OCC | 89 to 90 °C |
| O=C1CCNN1c1ccc(Cl)cc1 | 120 to 122 °C |
| c1ccc(C2=NN=C(c3ccccc3)NN2)cc1 | 177 to 178 °C |
| CCOc1cc(OCc2cn(-c3ccc(C(F)(F)F)cn3)nc2C)ccc1CCC(=O)O | 151 to 152 °C |
| CC(C)(C)OC(=O)NCCCc1ccccc1C=CC(=O)O | 122 to 126 °C |
| CCC1C(C)=NN=C(c2ccc(OC)c(OC)c2)c2cc(OC)c(O)cc21 (stereo not drawn) | 210 to 212 °C |
| COc1cc2ccccc2c(=O)c2cc(Cl)sc12 | 190 to 194 °C |
| CCOC(=O)CC[C@H](NC(=O)c1ccc(N)c(F)c1)C(=O)OCC | 92 to 97 °C |
| COc1cc(C)c2c(=O)c3c(C)c(Cl)ccc3oc2c1OC | 101 °C |
| CC(C)(C)OC(=O)N1CCCC(C2=C(C#N)C(c3cccc4nonc34)c3c[nH]nc3N2)C1 (stereo not drawn) | 229 °C |
| CNc1nc(-c2ccc(Cl)cc2)c(CCC(=O)O)o1 | 217 to 218 °C |
| CCN(c1nc(C)cc(C(O)c2cnccc2-c2ccccc2OC)n1)c1ccc(C(C)C)cc1Br (stereo not drawn) | 68 to 70 °C |
| COc1cccc2c(CC(=O)O)coc12 | 143 to 145 °C |
| CCc1cc(N)c(I)c(CC)n1 | 72 to 74 °C |
| COc1ncnc(-c2ccc(Cl)cc2Cl)c1C#N | 107 to 109 °C |
| Nn1cccc1C(=O)c1ccccc1 | 65 to 69 °C |
| COc1cc(/C=C/C=C/CO)ccc1OCc1nc(-c2ccccc2)oc1C | 149 to 151 °C |
| COc1cc(C2C3=C(COC3=O)Nc3ccc4cc(C)[nH]c4c32)ccc1F (stereo not drawn) | 198 to 199 °C |
| CCC(=O)Nc1ccc(C(=O)C=CN(C)C)cc1 | 161 to 163 °C |

| SMILES | melting point |
| --- | --- |
| COc1cn(-c2cccc(Br)c2F)nc(-c2ccnn2-c2ccccc2)c1=O | 186 to 191 °C |
| CCC(CC)(CC(=O)Nc1cccc(OCc2ccc3ccc(F)cc3n2)c1)C(=O)OC | 92 to 93 °C |
| O=C(O)CCC(=O)c1ccc(NC(=O)C2(Cl)CC2)cc1 | 178 to 179 °C |
| COc1ccc2cc([C@H](C)C(=O)OCC(=O)COC(=O)Cc3ccc(CO[N+](=O)[O-])cc3)ccc2c1 | 92 to 95 °C |
| CNC(=S)NCCCSc1nc(C)co1 | 73 to 74 °C |
| COc1ccc(C2CNC(=O)NC2)cc1OCCCCc1ccccc1 | 142 to 143 °C |
| Cc1cc2nc(SCC(F)(F)F)[nH]c2cc1C | 150 to 163 °C |
| COc1ccc2c(C(=O)Nc3ccc(F)c(C(F)(F)F)c3)nsc2c1 | 157 °C |
| CCN1CCCCC1CCc1ccccc1NC(=O)C=Cc1ccccc1 (stereo not drawn) | 120 to 122 °C |
| COC(=O)N(Oc1cc(Cl)cc(Cl)c1)C(=O)N(C)C(C)C | 67 to 69 °C |
| CNc1ccc(-c2ocnc2-c2cc(OC)cc(OC)c2)cc1F | 140 to 142 °C |
| Oc1ccc(O)c(C(F)(F)F)c1 | 114 to 115 °C |
| O=C(NCCN1CCCCC1)N1CCN(c2ccccc2)CC1 | 64 to 67 °C |
| N#Cc1cc(C(=O)NNC(=O)c2occc2-c2cccc(OCCc3ccccc3)c2)ccc1O | 131 to 134 °C |
| NS(=O)(=O)c1cc2c(s1)S(=O)CC(=O)N2 (stereo not drawn) | 222 to 223 °C |
| CCC(CC)NC1=CC(CC(C(=O)OC)C(=O)OC)(Nc2c(C)cc(C)cc2C)NC(C)=C1 (stereo not drawn) | 136 to 138 °C |
| CC(ON1C(C)(C)CC2(CC1(C)C)OCC(C)(C)CO2)c1ccc(O)cc1 (stereo not drawn) | 133 to 134 °C |
| COc1cc(C(F)(F)F)ccc1C#N | 59 to 61 °C |
| Cc1nc2ccc3c(c2nc1C)OC(CN1CC=C(c2c[nH]c4ccc(F)cc24)CC1)CO3 (stereo not drawn) | 138 to 141 °C |
| ON=Cc1cc(Cl)ncc1Cl | 173 to 174 °C |
| O=C(NCc1ccc(OC(F)(F)F)cc1)Nc1cccc2[nH]ccc12 | 177 °C |
| COC1CC(OCc2ccccc2)C(OS(=O)(=O)c2ccc(C)cc2)C(COC(c2ccccc2)(c2ccccc2)c2ccccc2)O1 (stereo not drawn) | 94 to 97 °C |
| Cc1oc(-c2ccccc2)nc1COc1ccc(C=C2SC(=O)NC2=O)cc1 | 225 to 226 °C |
| CC(C)(C)OC(=O)CC1(SN=O)C2CC3CC(C2)CC1C3 (stereo not drawn) | 85 to 87 °C |
| Cn1c(Br)c(Br)c(C#N)c1Br | 151 to 152 °C |
